Assay results as given in patent EP0278158A2, “Renin inhibitors containing phenylalanyl-histidine replacements” (Merck & Co., Inc., priority 1986, dated 1988).
Non-standard residues stand in square brackets, D forms with d. Residues, ends and D or L forms follow the SMILES beside them. *: point of attachment. Sta = CC(C)C[C@H](N)[C@@H](O)CC(=O)O; Isovaleryl = CC(C)CC(=O)*

Legend:
renin = biological target: T1, renin (Homo sapiens, UniProt P00797); test: renin inhibition (IC50 printed in the synthesis example, no method described); assay type: biochemical
T1 sequence (P00797 67-406): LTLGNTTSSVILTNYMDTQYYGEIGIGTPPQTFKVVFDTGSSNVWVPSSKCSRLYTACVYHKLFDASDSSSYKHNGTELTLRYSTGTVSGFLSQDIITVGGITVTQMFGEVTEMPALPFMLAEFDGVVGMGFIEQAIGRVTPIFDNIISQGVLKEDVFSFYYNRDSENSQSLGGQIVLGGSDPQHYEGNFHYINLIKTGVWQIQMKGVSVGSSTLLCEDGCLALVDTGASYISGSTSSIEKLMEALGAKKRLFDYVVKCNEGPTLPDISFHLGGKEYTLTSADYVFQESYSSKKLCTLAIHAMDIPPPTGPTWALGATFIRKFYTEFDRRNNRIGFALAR

hog renin = conditions: after the injection of hog renin into nephrectomized rats; Gross et al., Science 175:656, 1972; cited from earlier work

| SMILES | IC50 (renin) | blood pressure in vivo (hog renin) |
| --- | --- | --- |
| CC(C)S(=O)(=O)C[C@@H](CCc1ccccc1)C(=O)N[C@@H](Cc1cnc[nH]1)C(=O)N[C@@H](CC1CCCCC1)[C@@H](O)CC(=O)NC1CN2CCC1CC2 (stereo partly drawn) [3-benzyl-2-(S)-(isopropylsuffonylmethyl)propionyl-L-histidyl-(3S,4S)-4-amino-5-cyclohexyl 3-hydroxypentanoyl 3-quinuclidinyl amide] | 11 nM | – |
| CC(C)CC(=O)N[C@H](C(=O)N[C@H](C(=O)N[C@@H](CC(C)C)[C@@H](O)CC(=O)N[C@@H](C)C(=O)N[C@@H](CC(C)C)[C@@H](O)CC(=O)O)C(C)C)C(C)C [pepstatin] (Isovaleryl-VV[Sta]A[Sta]-OH) | – | reduces blood pressure |
